In PubChem BioAssay AID1918957 (Molecular Pharmacology Branch, DTP, NCI, 2023):
Values joined by “and” are separate entries in the source; they are usually repeats but may differ in a detail not shown here. Equal values may be shown once.

Tested on: NCI-H1876 complex spheroid viability
Assay: Anticancer human tumor NCI-H1876 cell line growth inhibition [LSD1];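 also: spheroids exposed to compounds for one week before readout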;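 as to viability, T/C: 100% = DMSO vehicle-treated spheroids so lower means fewer viable cells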
Conditions: for viability, T/C: stronger effect = lower value
Summary of the method: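 Drug combinations with the LSD1 inhibitor iadademstat tested on tumor cells co-cultured as spheroids with endothelial cells and mesenchymal stem cells. Concentrations descended in half-log increments from clinical Cmax or 10 microM.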

[1] = curve of first compound, second compound 0.1 µM
[2] = curve of first compound, second compound 0.316 µM
[3] = curve of first compound, second compound 1 µM
[4] = curve of first compound, second compound 3.16 µM
[5] = curve of first compound, second compound 10 µM
[6] = second compound 0.1 µM, first compound 0.0316 µM
[7] = second compound 0.1 µM, first compound 0.1 µM
[8] = second compound 0.1 µM, first compound 0.316 µM
[9] = second compound 0.1 µM, first compound 1 µM
[10] = second compound 0.1 µM, first compound 3.16 µM
[11] = second compound 0.1 µM, first compound 10 µM
[12] = second compound 0.316 µM, first compound 0.0316 µM
[13] = second compound 0.316 µM, first compound 0.1 µM
[14] = second compound 0.316 µM, first compound 0.316 µM
[15] = second compound 0.316 µM, first compound 1 µM
[16] = second compound 0.316 µM, first compound 3.16 µM
[17] = second compound 0.316 µM, first compound 10 µM
[18] = second compound 1 µM, first compound 0.0316 µM
[19] = second compound 1 µM, first compound 0.1 µM
[20] = second compound 1 µM, first compound 0.316 µM
[21] = second compound 1 µM, first compound 1 µM
[22] = second compound 1 µM, first compound 3.16 µM
[23] = second compound 1 µM, first compound 10 µM
[24] = second compound 3.16 µM, first compound 0.0316 µM
[25] = second compound 3.16 µM, first compound 0.1 µM
[26] = second compound 3.16 µM, first compound 0.316 µM
[27] = second compound 3.16 µM, first compound 1 µM
[28] = second compound 3.16 µM, first compound 3.16 µM
[29] = second compound 3.16 µM, first compound 10 µM
[30] = second compound 10 µM, first compound 0.0316 µM
[31] = second compound 10 µM, first compound 0.1 µM
[32] = second compound 10 µM, first compound 0.316 µM
[33] = second compound 10 µM, first compound 1 µM
[34] = second compound 10 µM, first compound 3.16 µM
[35] = second compound 10 µM, first compound 10 µM

CC(C)CC(NC(=O)C(Cc1ccccc1)NC(=O)c1cnccn1)B(O)O (stereo not drawn)
viability, T/C (compound 0.000316 µM): 84% and 74.3%
viability, T/C (compound 0.001 µM): 15.6% and 0.43%
viability, T/C (compound 0.00316 µM): 8.34% and 0.27%
viability, T/C (compound 0.01 µM): 17.3% and 0.26%
viability, T/C (compound 0.0316 µM): 7.7% and 0.24%
viability, T/C (compound 0.1 µM): 13.9% and 0.31%
IC50 (curve of compound): 0.56 nM and 0.462 nM

NS(=O)(=O)OCC1CC(n2ccc3c(NC4CCc5ccccc54)ncnc32)CC1O (stereo not drawn)
viability, T/C (compound 0.00949 µM): 84.9% and 85.4%
viability, T/C (compound 0.03 µM): 66.2% and 63.6%
viability, T/C (compound 0.0949 µM): 56.7% and 51.4%
viability, T/C (compound 0.3 µM): 43.3% and 49.8%
viability, T/C (compound 0.949 µM): 39% and 40.2%
viability, T/C (compound 3 µM): 32.8% and 39%
IC50 (curve of compound): 165 nM and 150 nM

O=C(C=Cn1cnc(-c2cc(C(F)(F)F)cc(C(F)(F)F)c2)n1)NNc1cnccn1
viability, T/C (compound 0.00316 µM): 99.2% and 92.7%
viability, T/C (compound 0.01 µM): 91% and 89.3%
viability, T/C (compound 0.0316 µM): 84.4% and 80%
viability, T/C (compound 0.1 µM): 47.8% and 42%
viability, T/C (compound 0.316 µM): 23.1% and 16.6%
viability, T/C (compound 1 µM): 16.3% and 9.98%
IC50 (curve of compound): 94.9 nM and 79.1 nM

CC(C)c1c(-c2ccccc2)nc2c(C#N)c[nH]n2c1=O + NC1CC1c1ccc(-c2cccc(O)c2)cc1
IC50 [1]: 7370 nM
IC50 [2]: 7730 nM
IC50 [3]: 7780 nM
IC50 [4]: 6290 nM
IC50 [5]: 4800 nM
viability, T/C [6]: 97.2%
viability, T/C [7]: 96.2%
viability, T/C [8]: 97.3%
viability, T/C [9]: 93.2%
viability, T/C [10]: 87.2%
viability, T/C [11]: 36.5%
viability, T/C [12]: 99.3%
viability, T/C [13]: 102%
viability, T/C [14]: 102%
viability, T/C [15]: 111%
viability, T/C [16]: 91%
viability, T/C [17]: 38.2%
viability, T/C [18]: 102%
viability, T/C [19]: 101%
viability, T/C [20]: 101%
viability, T/C [21]: 106%
viability, T/C [22]: 98.5%
viability, T/C [23]: 36.5%
viability, T/C [24]: 101%
viability, T/C [25]: 98.2%
viability, T/C [26]: 96.6%
viability, T/C [27]: 96.5%
viability, T/C [28]: 87.3%
viability, T/C [29]: 24.8%
viability, T/C [30]: 84.7%
viability, T/C [31]: 85.7%
viability, T/C [32]: 91.2%
viability, T/C [33]: 88%
viability, T/C [34]: 73.2%
viability, T/C [35]: 9.44%

COc1cc(C2c3cc4c(cc3C(OC3OC5COC(C)OC5C(O)C3O)C3COC(=O)C23)OCO4)cc(OC)c1O (stereo not drawn) + NC1CC1c1ccc(-c2cccc(O)c2)cc1
IC50 [1]: 36.6 nM
IC50 [2]: 34.6 nM
IC50 [3]: 35.2 nM
IC50 [4]: 40.4 nM
IC50 [5]: 35.3 nM
viability, T/C (second compound 0.1 µM, first compound 0.00949 µM): 87.6%
viability, T/C (second compound 0.1 µM, first compound 0.03 µM): 56.3%
viability, T/C (second compound 0.1 µM, first compound 0.0949 µM): 20.1%
viability, T/C (second compound 0.1 µM, first compound 0.3 µM): 11.4%
viability, T/C (second compound 0.1 µM, first compound 0.949 µM): 8.84%
viability, T/C (second compound 0.1 µM, first compound 3 µM): 10.2%
viability, T/C (second compound 0.316 µM, first compound 0.00949 µM): 84.4%
viability, T/C (second compound 0.316 µM, first compound 0.03 µM): 54.4%
viability, T/C (second compound 0.316 µM, first compound 0.0949 µM): 18.6%
viability, T/C (second compound 0.316 µM, first compound 0.3 µM): 10.9%
viability, T/C (second compound 0.316 µM, first compound 0.949 µM): 9.79%
viability, T/C (second compound 0.316 µM, first compound 3 µM): 8.38%
viability, T/C (second compound 1 µM, first compound 0.00949 µM): 92%
viability, T/C (second compound 1 µM, first compound 0.03 µM): 55.2%
viability, T/C (second compound 1 µM, first compound 0.0949 µM): 18%
viability, T/C (second compound 1 µM, first compound 0.3 µM): 11.6%
viability, T/C (second compound 1 µM, first compound 0.949 µM): 9.23%
viability, T/C (second compound 1 µM, first compound 3 µM): 8.55%
viability, T/C (second compound 3.16 µM, first compound 0.00949 µM): 93.9%
viability, T/C (second compound 3.16 µM, first compound 0.03 µM): 60.5%
viability, T/C (second compound 3.16 µM, first compound 0.0949 µM): 19.9%
viability, T/C (second compound 3.16 µM, first compound 0.3 µM): 13%
viability, T/C (second compound 3.16 µM, first compound 0.949 µM): 9%
viability, T/C (second compound 3.16 µM, first compound 3 µM): 8.78%
viability, T/C (second compound 10 µM, first compound 0.00949 µM): 85.3%
viability, T/C (second compound 10 µM, first compound 0.03 µM): 54.9%
viability, T/C (second compound 10 µM, first compound 0.0949 µM): 20.7%
viability, T/C (second compound 10 µM, first compound 0.3 µM): 13.8%
viability, T/C (second compound 10 µM, first compound 0.949 µM): 11%
viability, T/C (second compound 10 µM, first compound 3 µM): 9.82%

Nc1ncn(C2CC(O)C(CO)S2)c(=O)n1 (stereo not drawn)
viability, T/C (compound 0.000949 µM): 105% and 97.8%
viability, T/C (compound 0.003 µM): 96.8% and 99.5%
viability, T/C (compound 0.00949 µM): 100% and 95.5%
viability, T/C (compound 0.03 µM): 81.2% and 81.3%
viability, T/C (compound 0.0949 µM): 83.2% and 71.1%
viability, T/C (compound 0.3 µM): 59.5% and 50.1%
IC50 (curve of compound): > 300 nM

COc1ccc([C@@H](O)c2cc(-c3ncnc4cc(N5CCOCC5)ccc34)c(F)cc2Cl)nn1 + NC1CC1c1ccc(-c2cccc(O)c2)cc1
IC50 [1]: 1870 nM
IC50 [2]: 1890 nM
IC50 [3]: 1730 nM
IC50 [4]: 1100 nM
IC50 [5]: 546 nM
viability, T/C [6]: 89.6%
viability, T/C [7]: 91.2%
viability, T/C [8]: 87.8%
viability, T/C [9]: 67.8%
viability, T/C [10]: 34.7%
viability, T/C [11]: 9.23%
viability, T/C [12]: 92.5%
viability, T/C [13]: 93.1%
viability, T/C [14]: 86.1%
viability, T/C [15]: 71%
viability, T/C [16]: 33.3%
viability, T/C [17]: 9.61%
viability, T/C [18]: 103%
viability, T/C [19]: 102%
viability, T/C [20]: 88.5%
viability, T/C [21]: 67.5%
viability, T/C [22]: 31.3%
viability, T/C [23]: 9%
viability, T/C [24]: 93.9%
viability, T/C [25]: 91.3%
viability, T/C [26]: 79.3%
viability, T/C [27]: 50%
viability, T/C [28]: 26%
viability, T/C [29]: 6.12%
viability, T/C [30]: 90.3%
viability, T/C [31]: 83.2%
viability, T/C [32]: 58.6%
viability, T/C [33]: 38%
viability, T/C [34]: 17.8%
viability, T/C [35]: 2.16%

Cn1ncnc1C1c2n[nH]c(=O)c3cc(F)cc(c23)NC1c1ccc(F)cc1 (stereo not drawn) + NC1CC1c1ccc(-c2cccc(O)c2)cc1
IC50 [1]: > 100 nM
IC50 [2]: > 100 nM
IC50 [3]: > 100 nM
IC50 [4]: > 100 nM
IC50 [5]: > 100 nM
viability, T/C (second compound 0.1 µM, first compound 0.000316 µM): 112%
viability, T/C (second compound 0.1 µM, first compound 0.001 µM): 113%
viability, T/C (second compound 0.1 µM, first compound 0.00316 µM): 111%
viability, T/C (second compound 0.1 µM, first compound 0.01 µM): 97.9%
viability, T/C [6]: 92%
viability, T/C [7]: 90%
viability, T/C (second compound 0.316 µM, first compound 0.000316 µM): 108%
viability, T/C (second compound 0.316 µM, first compound 0.001 µM): 106%
viability, T/C (second compound 0.316 µM, first compound 0.00316 µM): 110%
viability, T/C (second compound 0.316 µM, first compound 0.01 µM): 97.4%
viability, T/C [12]: 107%
viability, T/C [13]: 90.1%
viability, T/C (second compound 1 µM, first compound 0.000316 µM): 108%
viability, T/C (second compound 1 µM, first compound 0.001 µM): 115%
viability, T/C (second compound 1 µM, first compound 0.00316 µM): 108%
viability, T/C (second compound 1 µM, first compound 0.01 µM): 106%
viability, T/C [18]: 96.2%
viability, T/C [19]: 87.8%
viability, T/C (second compound 3.16 µM, first compound 0.000316 µM): 109%
viability, T/C (second compound 3.16 µM, first compound 0.001 µM): 110%
viability, T/C (second compound 3.16 µM, first compound 0.00316 µM): 102%
viability, T/C (second compound 3.16 µM, first compound 0.01 µM): 104%
viability, T/C [24]: 90.2%
viability, T/C [25]: 92.9%
viability, T/C (second compound 10 µM, first compound 0.000316 µM): 107%
viability, T/C (second compound 10 µM, first compound 0.001 µM): 102%
viability, T/C (second compound 10 µM, first compound 0.00316 µM): 95.5%
viability, T/C (second compound 10 µM, first compound 0.01 µM): 96.7%
viability, T/C [30]: 89.7%
viability, T/C [31]: 78.8%
